Starred links: 1 amine or outer side, 2 acyl side, 3 side chain; linkers in the order of their positions; H or OH if unused. Positions of bridges follow the written chain, without caps; N, C: chain ends. Non-standard residues stand in square brackets, D forms with d. Residues, ends and D or L forms follow the SMILES beside them. Groups on a side chain read outwards from the residue. *: point of attachment. C18 diacid = O=C(O)CCCCCCCCCCCCCCCCC(=O)*; Docosanoyl = CCCCCCCCCCCCCCCCCCCCCC(=O)*; γGlu = O=C(O)[C@H](CCC(=O)[*:2])N[*:1]; Palmitoyl = CCCCCCCCCCCCCCCC(=O)*; AEEA = NCCOCCOCC(=O)O
Experiment: in vivo
Set-up: species or system Sprague-Dawley rats
Settings: rat, iv, 0.033 mg/kg
Summary of the method: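 Male Sprague-Dawley rats, non-fasted (n=3), given peptide in saline as 1-h IV or SC infusion at 0.033 mg/kg, or SC bolus at 0.3 mg/kg; jugular blood to 48 h into K2EDTA plus protease inhibitors. Plasma extracted by precipitation or WCX solid-phase extraction, quantified by UPLC-MS/MS against standards in matching rat plasma.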

| Vd [L/kg] | clearance [mL/min/kg] | half-life [h] | SMILES |
| --- | --- | --- | --- |
| 0.239 | 2.11 | 1.8 | CCCCCCCCCCCCCCCC(=O)N[C@@H](CCC(=O)NCCCC[C@H](NC(=O)[C@H](CCCNC(=N)N)NC(=O)[C@H](CCC(N)=O)NC(=O)[C@@H](NC(=O)[C@H](C)NC(=O)[C@@H]1CSSC[C@H](NC(=O)[C@@H](N)CO)C(=O)N[C@@H](CC(N)=O)C(=O)N[C@@H]([C@@H](C)O)C(=O)N[C@@H](CO)C(=O)N[C@@H]([C@@H](C)O)C(=O)N1)[C@@H](C)O)C(=O)N[C@@H](C)C(=O)N[C@@H](CC(N)=O)C(=O)N[C@@H](CCC(=O)O)C(=O)N[C@@H](CC(C)C)C(=O)N[C@@H](Cc1c[nH]cn1)C(=O)N[C@@H](CCCCN)C(=O)N[C@@H](CO)C(=O)N[C@@H](CO)C(=O)N[C@@H](CC(N)=O)C(=O)N[C@@H](CC(N)=O)C(=O)N[C@@H](Cc1ccccc1)C(=O)NCC(=O)N1CCC[C@H]1C(=O)N[C@H](C(=O)N[C@@H](CC(C)C)C(=O)N1CCC[C@H]1C(=O)N1CCC[C@H]1C(=O)N[C@H](C(=O)N[C@@H](CCCCN)C(=O)N[C@H](C(=O)NCC(=O)N[C@@H](CO)C(=O)N[C@@H](CCC(=O)O)C(=O)N[C@H](C(=O)N[C@@H](Cc1ccc(O)cc1)C(N)=O)[C@@H](C)O)C(C)C)[C@@H](C)O)[C@@H](C)CC)C(=O)O [Compound A121] (H-SCNTSTCATQRK([γGlu-Palmitoyl])ANELHKSSNNFGPILPPTKVGSETY-NH2; disulfide 2-7) |
| 0.763 | 1.95 | 5.13 | CCCCCCCCCCCCCCCC(=O)N[C@@H](CCC(=O)NCCOCCOCC(=O)NCCOCCOCC(=O)N[C@@H](CCC(=O)N[C@@H](CCC(=O)NCCCC[C@H](NC(=O)[C@H](CCC(=O)O)NC(=O)[C@H](CC(N)=O)NC(=O)[C@H](C)NC(=O)[C@H](CC(C)C)NC(=O)[C@H](CCCNC(=N)N)NC(=O)[C@H](CCC(N)=O)NC(=O)[C@@H](NC(=O)[C@H](C)NC(=O)[C@@H]1CSSC[C@H](NC(=O)[C@@H](N)CO)C(=O)N[C@@H](CC(N)=O)C(=O)N[C@@H]([C@@H](C)O)C(=O)N[C@@H](CO)C(=O)N[C@@H]([C@@H](C)O)C(=O)N1)[C@@H](C)O)C(=O)N[C@@H](Cc1c[nH]cn1)C(=O)N[C@@H](CCCCN)C(=O)N[C@@H](CO)C(=O)N[C@@H](CO)C(=O)N[C@@H](CC(N)=O)C(=O)N[C@@H](CC(N)=O)C(=O)N[C@@H](Cc1ccccc1)C(=O)NCC(=O)N1CCC[C@H]1C(=O)N[C@H](C(=O)N[C@@H](CC(C)C)C(=O)N1CCC[C@H]1C(=O)N1CCC[C@H]1C(=O)N[C@H](C(=O)N[C@@H](CCCCN)C(=O)N[C@H](C(=O)NCC(=O)N[C@@H](CO)C(=O)N[C@@H](CCC(=O)O)C(=O)N[C@H](C(=O)N[C@@H](Cc1ccc(O)cc1)C(N)=O)[C@@H](C)O)C(C)C)[C@@H](C)O)[C@@H](C)CC)C(=O)O)C(=O)O)C(=O)O [Compound A122] (H-SCNTSTCATQRLANEK([γGlu-γGlu-AEEA-AEEA-γGlu-Palmitoyl])HKSSNNFGPILPPTKVGSETY-NH2; disulfide 2-7; N-terminus assumed) |
| 0.146 | 0.58 | 3.2 | CCCCCCCCCCCCCCCC(=O)N[C@@H](CCC(=O)N[C@@H](CCC(=O)NCCCC[C@H](NC(=O)[C@H](CCC(=O)O)NC(=O)[C@H](CC(N)=O)NC(=O)[C@H](C)NC(=O)[C@H](CC(C)C)NC(=O)[C@H](CCCNC(=N)N)NC(=O)[C@H](CCC(N)=O)NC(=O)[C@@H](NC(=O)[C@H](C)NC(=O)[C@@H]1CSSC[C@H](NC(=O)[C@@H](N)CO)C(=O)N[C@@H](CC(N)=O)C(=O)N[C@@H]([C@@H](C)O)C(=O)N[C@@H](CO)C(=O)N[C@@H]([C@@H](C)O)C(=O)N1)[C@@H](C)O)C(=O)N[C@@H](Cc1c[nH]cn1)C(=O)N[C@@H](CCCCN)C(=O)N[C@@H](CO)C(=O)N[C@@H](CO)C(=O)N[C@@H](CC(N)=O)C(=O)N[C@@H](CC(N)=O)C(=O)N[C@@H](Cc1ccccc1)C(=O)NCC(=O)N1CCC[C@H]1C(=O)N[C@H](C(=O)N[C@@H](CC(C)C)C(=O)N1CCC[C@H]1C(=O)N1CCC[C@H]1C(=O)N[C@H](C(=O)N[C@@H](CCCCN)C(=O)N[C@H](C(=O)NCC(=O)N[C@@H](CO)C(=O)N[C@@H](CCC(=O)O)C(=O)N[C@H](C(=O)N[C@@H](Cc1ccc(O)cc1)C(N)=O)[C@@H](C)O)C(C)C)[C@@H](C)O)[C@@H](C)CC)C(=O)O)C(=O)O [Compound A123] (H-SCNTSTCATQRLANEK([γGlu-γGlu-Palmitoyl])HKSSNNFGPILPPTKVGSETY-NH2; disulfide 2-7) |
| 0.273 | 1.72 | 2.14 | CCCCCCCCCCCCCCCCCCCCCC(=O)N[C@@H](CCC(=O)N[C@@H](CCC(=O)NCCCC[C@@H](NC(=O)[C@H](CCC(=O)O)NC(=O)[C@H](CC(N)=O)NC(=O)[C@H](C)NC(=O)[C@H](CC(C)C)NC(=O)[C@H](CCCNC(=N)N)NC(=O)[C@H](CCC(N)=O)NC(=O)[C@@H](NC(=O)[C@H](C)NC(=O)[C@@H]1CSSC[C@H](NC(=O)[C@@H](N)CO)C(=O)N[C@@H](CC(N)=O)C(=O)N[C@@H]([C@@H](C)O)C(=O)N[C@@H](CO)C(=O)N[C@@H]([C@@H](C)O)C(=O)N1)[C@@H](C)O)C(=O)N[C@@H](Cc1c[nH]cn1)C(=O)N[C@@H](CCCCN)C(=O)N[C@@H](CO)C(=O)N[C@@H](CO)C(=O)N[C@@H](CC(N)=O)C(=O)N[C@@H](CC(N)=O)C(=O)N[C@@H](Cc1ccccc1)C(=O)NCC(=O)N1CCC[C@H]1C(=O)N[C@H](C(=O)N[C@@H](CC(C)C)C(=O)N1CCC[C@H]1C(=O)N1CCC[C@H]1C(=O)N[C@H](C(=O)N[C@@H](CCCCN)C(=O)N[C@H](C(=O)NCC(=O)N[C@@H](CO)C(=O)N[C@@H](CCC(=O)O)C(=O)N[C@H](C(=O)N[C@@H](Cc1ccc(O)cc1)C(N)=O)[C@@H](C)O)C(C)C)[C@@H](C)O)[C@@H](C)CC)C(=O)O)C(=O)O [Compound A124] (H-SCNTSTCATQRLANE[dK]([γGlu-γGlu-Docosanoyl])HKSSNNFGPILPPTKVGSETY-NH2; disulfide 2-7) |

| SMILES | Vd [L/kg] | clearance [mL/min/kg] | half-life [h] |
| --- | --- | --- | --- |
| CC[C@H](C)[C@H](NC(=O)[C@@H]1CCCN1C(=O)CNC(=O)[C@H](Cc1ccccc1)NC(=O)[C@H](CC(N)=O)NC(=O)[C@H](CC(N)=O)NC(=O)[C@H](CO)NC(=O)[C@H](CO)NC(=O)[C@H](CCCCN)NC(=O)[C@H](CCC(N)=O)NC(=O)[C@H](CC(C)C)NC(=O)[C@H](Cc1ccccc1)NC(=O)[C@H](CC(N)=O)NC(=O)[C@H](C)NC(=O)[C@H](CC(C)C)NC(=O)[C@H](CCCNC(=N)N)NC(=O)[C@H](CO)NC(=O)[C@@H](NC(=O)[C@H](C)NC(=O)[C@@H]1CSSC[C@H](NC(=O)[C@@H](N)CCCCNC(=O)CC[C@H](NC(=O)CCCCCCCCCCCCCCCCC(=O)O)C(=O)O)C(=O)N[C@@H](CC(N)=O)C(=O)N[C@@H]([C@@H](C)O)C(=O)N[C@@H](CO)C(=O)N[C@@H]([C@@H](C)O)C(=O)N1)[C@@H](C)O)C(=O)N[C@@H](CC(C)C)C(=O)N1CCC[C@H]1C(=O)N1CCC[C@H]1C(=O)N[C@H](C(=O)N[C@@H](CCCCN)C(=O)N[C@H](C(=O)NCC(=O)N[C@@H](CO)C(=O)N[C@@H](CCC(=O)O)C(=O)N[C@H](C(=O)N[C@@H](Cc1ccc(O)cc1)C(N)=O)[C@@H](C)O)C(C)C)[C@@H](C)O [Compound A109] (H-K([γGlu-C18 diacid])CNTSTCATSRLANFLQKSSNNFGPILPPTKVGSETY-NH2; disulfide 2-7; N-terminus assumed) | 0.154 | 0.15 | 16 |
